pEC50, pIC50: −log10 of the molar value.
Assays:
[1] = test system: Wolbachia; assay: Anti-Wolbachia activity Reduction in Wolbachia infected cells at 10 uM (%); type: functional, cell-based; set-up: Activity: scale not given: the % may be the effect or the level left
[2] = test system: HepG2; assay: Cytotoxicity data HepG2 CC20 (uM); type: functional
[3] = test system: Toxoplasma gondii; assay: AntiToxoplasma gondii activity data Inhibition of plaque forming efficiency (%) Experiment A; type: functional; set-up: concentration or dose not given beside the values
[4] = test system: Toxoplasma gondii; assay: AntiToxoplasma gondii activity data Inhibition of plaque forming efficiency (%) Experiment B; type: functional; set-up: concentration or dose not given beside the values
[5] = test system: Toxoplasma gondii; assay: AntiToxoplasma gondii activity data 2-day killing assay: inhibition at 10 uM (%) Experiment C; type: functional; conditions: 48 h
[6] = test system: Toxoplasma gondii; assay: AntiToxoplasma gondii activity data 2-day killing assay: inhibition at 10 uM (%) Experiment D; type: functional
[7] = test system: Toxoplasma gondii; assay: AntiToxoplasma gondii activity data 2-day killing assay: inhibition at 10 uM (%) Experiment E; type: functional
[8] = test system: Toxoplasma gondii; assay: AntiToxoplasma gondii activity data 2-day killing assay: IC50 (uM), Experiment F; type: functional, organism-based
[9] = test system: Toxoplasma gondii; assay: AntiToxoplasma gondii activity data 2-day killing assay: IC50 (uM), Experiment G; type: functional, organism-based
[10] = HL60 CC50 (uM) Cytotoxicity; type: functional; conditions: HL-60
[11] = test system: Dengue virus; assay: AntiDengue activity HCI DV1/A549 IC50 (uM); type: functional, organism-based
[12] = test system: Dengue virus; assay: AntiDengue activity HCI DV2/A549 IC50 (uM); type: functional, organism-based
[13] = test system: Dengue virus; assay: AntiDengue activity HCI DV2/Huh7 IC50 (uM); type: functional, organism-based; conditions: Huh-7
[14] = test system: Dengue virus; assay: AntiDengue activity HCI DV3/A549 IC50 (uM); type: functional, organism-based
[15] = test system: Dengue virus; assay: AntiDengue activity HCI DV4/A549 IC50 (uM); type: functional, organism-based
[16] = AntiChikungunya activity HCI CHIKV/Huh7 IC50 (uM); type: functional, Chikungunya virus
[17] = test system: A549; assay: A549 CC50 (uM) Cytotoxicity; type: functional; conditions: Homo sapiens
[18] = test system: HepG2; assay: HepG2 CC50 (uM) Cytotoxicity; type: functional; conditions: Homo sapiens
[19] = HUH7 CC50 (uM) Cytotoxicity; type: functional; conditions: Huh-7
[20] = test system: Onchocerca gutturosa; assay: AntiOnchocerca activity O. gutturosa adult males: Motility reduction at 12.5 uM (%); type: functional; set-up: scale not given: the % may be the effect or the level left
[21] = test system: Onchocerca gutturosa; assay: AntiOnchocerca activity O. gutturosa adult males: MTT reduction at 12.5 uM (%); type: functional; set-up: scale not given: the % may be the effect or the level left
[22] = test system: Onchocerca gutturosa; assay: AntiOnchocerca activity O. gutturosa adult males: EC50 (uM); type: functional, organism-based
[23] = test system: Onchocerca lienalis; assay: AntiOnchocerca activity O. lienalis microfilariae Motility reduction (%); type: functional; set-up: concentration or dose not given beside the values
[24] = test system: Onchocerca lienalis; assay: AntiOnchocerca activity O. lienalis microfilariae EC50 (uM); type: functional, organism-based
[25] = test system: Brugia malayi; assay: AntiBrugia malayi activity Effect on motility; type: functional, organism-based; conditions: Brugia malayi
[26] = test system: Ancylostoma ceylanicum; assay: microbe, parasite or virus in culture
[27] = test system: Ancylostoma ceylanicum; assay: microbe, parasite or virus in culture; remark: listed apart in the source
[28] = test system: Brugia pahangi; assay: AntiBrugia pahangi activity Average inhibition motility at 10 uM (%); type: functional
[29] = test system: Onchocerca ochengi; assay: AntiOnchocerca activity O. ochengi adult females: final mean inhibition motility at 10 uM on Day 7 (%); type: functional
[30] = test system: Onchocerca ochengi; assay: AntiOnchocerca activity O. ochengi adult males: final mean inhibition motility at 10 uM on Day 5 (%); type: functional
[31] = test system: Onchocerca volvulus; assay: AntiOnchocerca activity O. volvulus L3 Molting assay: inhibition at 10 uM (%); type: functional
[32] = test system: Onchocerca volvulus; assay: AntiOnchocerca activity O. volvulus L3 Molting assay: IC50 (uM); type: functional, organism-based

SMILES	CC20 [2]	Inhibition [3]	Inhibition [4]	inhibition at 10 µM [5]	Inhibition [6]	Inhibition [7]	IC50 [8]	IC50 [9]	CC50 [10]	other results
CCc1nc2ccc(C(=O)NCc3ccc4c(c3)OCO4)cn2c1N(C)Cc1cccs1	18.6 µM									Activity [1]: 45%
CC(Oc1cccc(Cl)c1)C(=O)Nc1ccc2oc(-c3ccncc3)nc2c1 (stereo unspecified)		100%	100%	0%	85.4%	81.6%	no inhibition	no inhibition	> 25 µM	
CC(=O)N1CCN(c2ccc(Oc3ccc(Cl)cc3O)cc2)CC1		~90%	~90%	71%	22.4%	64.6%	no inhibition	no inhibition	> 50 µM	
O=C1[C@@H](Oc2ccccc2)[C@@H](c2ccc(Cl)cc2)N1CCn1cnc2c(NCc3ccccc3)ncnc21										pIC50 [11]: 5.52; pIC50 [12]: 5.22; pIC50 [13]: 5.52; pIC50 [14]: 5.40; pIC50 [15]: 5.70; pIC50 [16]: 5.22; CC50 [17]: 40 µM; CC50 [18]: 3 µM; CC50 [19]: 10 µM
CC(C(=O)Nc1ccc2oc(-c3ccncc3)nc2c1)c1ccccc1 (stereo unspecified)		100%	~75%	3.75%	62.6%	1.05%	no inhibition	no inhibition	> 50 µM	
Cc1cc2nc(NC(=O)C(C)(C)C)nc(Cl)c2n1Cc1ccc(Cl)cc1		~85%	~50%	0%	63.9%	0%	no inhibition	no inhibition	> 25 µM	
CS(=O)(=O)N1CCC(CCn2nc(Cc3cccc4ccccc34)c3c(N)ncnc32)CC1		100%	100%	0%	63.9%	20.6%	no inhibition	no inhibition	> 50 µM	
Cc1[nH]c2cc(F)cc(F)c2c(=O)c1-c1ccc(Oc2ccc(OC(F)(F)F)cc2)cc1	>80 µM									Activity [20]: 58.9%; Activity [21]: 56.9%; pEC50 [22]: 5.54; Activity [23]: 100%; pEC50 [24]: 5.86
Cc1cc(C2=NOC(c3cc(Cl)c(F)c(Cl)c3)(C(F)(F)F)C2)ccc1C(=O)NCc1ccc2c(c1)C(C)(C)OB2O (stereo unspecified)	10.9 µM									pIC50 [25]: 5.52
CC(C)(C)C(=O)N(CCCCCCN1C[C@H](O)[C@@H](O)[C@H](O)[C@H]1CO)C1CCCCCC1										pIC50 [11]: 7.15; pIC50 [12]: 6.22; pIC50 [13]: 5.70; pIC50 [14]: 7.10; pIC50 [15]: 6.70; pIC50 [16]: < 4.30; CC50 [17]: > 50 µM; CC50 [18]: > 50 µM; CC50 [19]: > 50 µM
CN1CCCC1CCO[C@](C)(c1ccccc1)c1ccc(Cl)cc1 (stereo partly specified)	9.28 µM									inhibition at 200 µM [26]: 76%; inhibition at 50 µM [27]: 47%
COc1ccc(N(CCc2cccc(C)n2)C(=O)C2CCCCC2)cc1	>80 µM								> 50 µM	Inhibition [28]: 11%; Activity [20]: 42.9%; Activity [21]: 35.7%; Activity [23]: 13%; Inhibition [29]: 4%; Inhibition [30]: 7%; Inhibition [31]: 100%; pIC50 [32]: 5.87
COC(=O)C1=C(C)NC(C)=C(C(=O)OC(C)C)C1c1cccc2nonc12 (stereo unspecified) [ISRADIPINE]	66 µM									Activity [20]: 100%; Activity [21]: 79%; pEC50 [22]: 6.05; Activity [23]: 53%

From ChEMBL document CHEMBL3832761, “MMV Pathogen Box Bioactivity Data” (2017)
